Reference: patent US20040220204A1, “Pharmaceutical composition comprising a tricyclic compound for the prevention or treatment of skin diseases” (priority 2001, published 2004)

Assay: stabilization of FK506 dissolved in lower alkanediols
Assay type: physicochemical
Conditions: such as ethylene glycol, propylene glycol, butylene glycol
Procedure: It was also confirmed that carboxybinyl polymer could make FK506 stable, when FK506 was dissolved in lower alkanediols, such as ethylene glycol, propylene glycol, butylene glycol, etc. And, it was further confirmed that a combination of hydroxypropyl cellulose and ascorbyl palmitate could also make FK506 stable, when FK506 was dissolved in lower alkanediols, such as ethylene glycol, propylene glycol, butylene glycol, etc.

## C=CC[C@@H]1/C=C(\C)C[C@H](C)C[C@H](OC)[C@H]2O[C@@](O)(C(=O)C(=O)N3CCCC[C@H]3C(=O)O[C@H](/C(C)=C/[C@@H]3CC[C@@H](O)[C@H](OC)C3)[C@H](C)[C@@H](O)CC1=O)[C@H](C)C[C@@H]2OC [FK506, 17-allyl-1,14-dihydroxy-12-[2-(4-hydroxy-3-methoxycyclohexyl)-1-methylvinyl]-23,25-dimethoxy-13,19,21,27-tetramethyl-11,28-dioxa-4-azatricyclo[22.3.1.0^4,9]octacos-18-ene-2,3,10,16-tetraone]
Carboxybinyl polymer added
  stability of FK506 with carboxybinyl polymer: stable
Hydroxypropyl cellulose and ascorbyl palmitate added
  stability of FK506 with a combination of hydroxypropyl cellulose and ascorbyl palmitate: stable
